Here are results for 16 molecules from patent publication US9073855B2, “BCL-2 selective apoptosis-inducing agents for the treatment of cancer and immune diseases” (AbbVie Inc., priority 2008, dated 2015).

The target of one test is GST-Bcl-XL (Homo sapiens, UniProt Q07817). Description: TR-FRET binding assay, GST-Bcl-XL with F-Bak peptide probe. The settings on record: TR-FRET Binding Affinity, GST-Bcl-XL, F-Bak peptide probe. A digest of the protocol: (§1)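 Competitive TR-FRET: GST-fusion protein, fluorescent Bak peptide probe and Tb-labelled anti-GST antibody incubated with compound dilution series (starting 50 μM as 2× stock, 10% DMSO) for 3 h at RT. Excitation 340/35 nm; Ki derived via Wang's exact competitive-binding equation.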
GST-Bcl-XL, sequence (Q07817 whole entry, the tested form may be a part): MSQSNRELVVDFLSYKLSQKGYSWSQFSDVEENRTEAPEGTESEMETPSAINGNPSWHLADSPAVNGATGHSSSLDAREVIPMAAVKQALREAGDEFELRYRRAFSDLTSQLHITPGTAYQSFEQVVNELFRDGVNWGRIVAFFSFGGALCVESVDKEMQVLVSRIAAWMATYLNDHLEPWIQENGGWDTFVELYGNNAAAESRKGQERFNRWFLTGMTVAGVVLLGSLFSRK

For another test, the system named is Canine platelets. Description: Platelet cell viability assay (platelet-rich plasma, Cell Titer Glo). The settings on record: Canis lupus familiaris, 5 h, isolated canine platelets ex vivo, five hours at 37° C. Type of test: cell-based. The procedure, abridged: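 Isolated canine platelets were incubated ex vivo with a range of compound concentrations. After 20 min equilibration at room temperature, viability was measured by Cell Titer Glo luminescence.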
Background: Cellular ATP, detected with luciferase, serves as a proxy for viable cell number.

For another test, the target named is GST-Bcl-2 (Homo sapiens, UniProt P10415). Description: TR-FRET binding assay, GST-Bcl-2 with F-Bak peptide probe. The note with it: TR-FRET Binding Affinity, GST-Bcl-2, F-Bak peptide probe. A digest of the protocol:
as §1
Background: Time-resolved FRET reads energy transfer from a long-lived donor to a nearby acceptor.

Another test relates to FL5.12/Bcl-2 cells. Description: FL5.12/Bcl-2 cell viability assay under IL-3 withdrawal (CellTitre Glo). Type of test: cell-based, murine. The note with it: Mus musculus, IL-3 withdrawn 48 hrs, then 24 hrs with compound. A digest of the protocol: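 Bcl-2-overexpressing murine FL5.12 transfectants underwent IL-3 removal for 48 hrs before a 24 hr compound treatment. Cell viability was quantified with CellTitre Glo.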

GST-Bcl-2, sequence (P10415 whole entry): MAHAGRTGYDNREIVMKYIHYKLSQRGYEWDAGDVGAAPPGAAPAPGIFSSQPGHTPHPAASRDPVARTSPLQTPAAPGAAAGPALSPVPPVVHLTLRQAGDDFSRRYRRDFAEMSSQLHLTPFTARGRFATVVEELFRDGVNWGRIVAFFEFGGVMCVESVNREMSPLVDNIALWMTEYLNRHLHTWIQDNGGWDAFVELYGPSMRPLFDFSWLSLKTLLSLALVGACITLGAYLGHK

Take `O=C(NS(=O)(=O)c1ccc(NCC2CCOCC2)c([N+](=O)[O-])c1)c1ccc(N2CCN(Cc3ccccc3-c3ccc(Cl)cc3)CC2)cc1Oc1ccc2c(c1)CCN2` [Example 140, 4-{4-[(4′-chloro-1,1′-biphenyl-2-yl)methyl]piperazin-1-yl}-2-(2,3-dihydro-1H-indol-5-yloxy)-N-({3-nitro-4-[(tetrahydro-2H-pyran-4-ylmethyl)amino]phenyl}sulfonyl)benzamide]: the values for the Ki on GST-Bcl-XL and at GST-Bcl-2 were more than 660 nM and 4.73 nM, respectively. Besides, the EC50 in the test with Canine platelets was more than 50000 nM; in the test with FL5.12/Bcl-2 cells, 2130 nM.

On to `O=C(NS(=O)(=O)c1ccc(NCCCN2CCCC2)c([N+](=O)[O-])c1)c1ccc(N2CCN(CC3=C(c4ccc(Cl)cc4)CCCCC3)CC2)cc1Oc1cccc2[nH]ccc12` [Example 141, 4-(4-{[2-(4-chlorophenyl)cyclohept-1-en-1-yl]methyl}piperazin-1-yl)-2-(1H-indol-4-yloxy)-N-({3-nitro-4-[(3-pyrrolidin-1-ylpropyl)amino]phenyl}sulfonyl)benzamide], for which the Ki on GST-Bcl-XL stood at 28.6 nM; at GST-Bcl-2 it was 0.673 nM. The EC50 with Canine platelets was more than 50000 nM; in the test with FL5.12/Bcl-2 cells, 76 nM.

Take `O=C(NS(=O)(=O)c1ccc(NCCCN2CCCC2)c([N+](=O)[O-])c1)c1ccc(N2CCN(CC3=C(c4ccc(Cl)cc4)CCCCCC3)CC2)cc1Oc1cccc2[nH]ccc12` [Example 142, 4-(4-{[2-(4-chlorophenyl)cyclooct-1-en-1-yl]methyl}piperazin-1-yl)-2-(1H-indol-4-yloxy)-N-({3-nitro-4-[(3-pyrrolidin-1-ylpropyl)amino]phenyl}sulfonyl)benzamide]: the Ki on GST-Bcl-XL is 102 nM; on GST-Bcl-2 it was 3.66 nM. The EC50 was more than 50000 nM with Canine platelets and 270 nM with FL5.12/Bcl-2 cells.

Regarding `O=C(NS(=O)(=O)c1ccc(NCCCN2CCCC2)c([N+](=O)[O-])c1)c1ccc(N2CCN(CC3=C(c4ccc(Cl)cc4)CCC3)CC2)cc1Oc1cccc2[nH]ccc12` [Example 143, 4-(4-{[2-(4-chlorophenyl)cyclopent-1-en-1-yl]methyl}piperazin-1-yl)-2-(1H-indol-4-yloxy)-N-({3-nitro-4-[(3-pyrrolidin-1-ylpropyl)amino]phenyl}sulfonyl)benzamide], the inhibition constant Ki worked out at 75.4 nM at GST-Bcl-XL and 2.23 nM on GST-Bcl-2. Also, the 50% effective concentration (EC50) is more than 50000 nM in the test with Canine platelets and 199 nM in the test with FL5.12/Bcl-2 cells.

For `CN1CCC(Nc2ccc(S(=O)(=O)NC(=O)c3ccc(N4CCN(CC5=C(c6ccc(Cl)cc6)CC(C)(C)C5)CC4)cc3Oc3cccc4[nH]ccc34)cc2[N+](=O)[O-])CC1` [Example 144, 4-(4-{[2-(4-chlorophenyl)-4,4-dimethylcyclopent-1-en-1-yl]methyl}piperazin-1-yl)-2-(1H-indol-4-yloxy)-N-({4-[(1-methylpiperidin-4-yl)amino]-3-nitrophenyl}sulfonyl)benzamide], the Ki is more than 660 nM on GST-Bcl-XL and 53.9 nM on GST-Bcl-2. Also, the EC50 is 40000 nM in the test with Canine platelets and 46 nM in the test with FL5.12/Bcl-2 cells.

As for `CN1CCC(Nc2ccc(S(=O)(=O)NC(=O)c3ccc(N4CCN(CC5=C(c6ccc(Cl)cc6)CC(C)(C)OC5)CC4)cc3Oc3cccc4[nH]ccc34)cc2[N+](=O)[O-])CC1` [Example 145, 4-(4-{[4-(4-chlorophenyl)-6,6-dimethyl-5,6-dihydro-2H-pyran-3-yl]methyl}piperazin-1-yl)-2-(1H-indol-4-yloxy)-N-({4-[(1-methylpiperidin-4-yl)amino]-3-nitrophenyl}sulfonyl)benzamide], the Ki on GST-Bcl-XL stood at 12 nM; on GST-Bcl-2, 0.03 nM. Moreover, the EC50 turned out to be 3210 nM in the test with Canine platelets and 4 nM in the test on FL5.12/Bcl-2 cells.

Take `CN1CCC(Nc2ccc(S(=O)(=O)NC(=O)c3ccc(N4CCN(CC5=C(c6ccc(Cl)cc6)CCCCCC5)CC4)cc3Oc3cccc4[nH]ccc34)cc2[N+](=O)[O-])CC1` [Example 146, 4-(4-{[2-(4-chlorophenyl)cyclooct-1-en-1-yl]methyl}piperazin-1-yl)-2-(1H-indol-4-yloxy)-N-({4-[(1-methylpiperidin-4-yl)amino]-3-nitrophenyl}sulfonyl)benzamide]: the Ki is more than 660 nM at GST-Bcl-XL and 44.2 nM at GST-Bcl-2. The EC50 in the test on Canine platelets worked out at 22000 nM; with FL5.12/Bcl-2 cells it was 152 nM.

Regarding `CN1CCC(Nc2ccc(S(=O)(=O)NC(=O)c3ccc(N4CCN(CC5=C(c6ccc(Cl)cc6)CCCCC5)CC4)cc3Oc3cccc4[nH]ccc34)cc2[N+](=O)[O-])CC1` [Example 147, 4-(4-{[2-(4-chlorophenyl)cyclohept-1-en-1-yl]methyl}piperazin-1-yl)-2-(1H-indol-4-yloxy)-N-({4-[(1-methylpiperidin-4-yl)amino]-3-nitrophenyl}sulfonyl)benzamide], the Ki on GST-Bcl-XL was more than 660 nM; at GST-Bcl-2 it was 0.514 nM. Besides, the EC50 in the test on Canine platelets came out at 17600 nM; in the test on FL5.12/Bcl-2 cells, 9 nM.

For the molecule `CN1CCC(Nc2ccc(S(=O)(=O)NC(=O)c3ccc(N4CCN(CC5=C(c6ccc(Cl)cc6)CCCC5)CC4)cc3Oc3cccc4[nH]ccc34)cc2[N+](=O)[O-])CC1` [Example 149, 4-(4-{[2-(4-chlorophenyl)cyclohex-1-en-1-yl]methyl}piperazin-1-yl)-2-(1H-indol-4-yloxy)-N-({4-[(1-methylpiperidin-4-yl)amino]-3-nitrophenyl}sulfonyl)benzamide], the Ki was more than 660 nM on GST-Bcl-XL and 0.265 nM on GST-Bcl-2. For the same molecule, the EC50 in the test on Canine platelets is 16700 nM; in the test with FL5.12/Bcl-2 cells it was 13 nM.

Consider `CN1CCC(Nc2ccc(S(=O)(=O)NC(=O)c3ccc(N4CCN(CC5=C(c6ccc(Cl)cc6)CC(C)(C)OC5)CC4)cc3Oc3ccc4[nH]ccc4c3)cc2[N+](=O)[O-])CC1` [Example 150, 4-(4-{[4-(4-chlorophenyl)-6,6-dimethyl-5,6-dihydro-2H-pyran-3-yl]methyl}piperazin-1-yl)-2-(1H-indol-5-yloxy)-N-({4-[(1-methylpiperidin-4-yl)amino]-3-nitrophenyl}sulfonyl)benzamide], for which the Ki at GST-Bcl-XL came to 9.34 nM; on GST-Bcl-2, 0.014 nM. Further, the EC50 worked out at 2900 nM in the test with Canine platelets and 6 nM with FL5.12/Bcl-2 cells.

For the molecule `CN1CCC(Nc2ccc(S(=O)(=O)NC(=O)c3ccc(N4CCN(CC5=C(c6ccc(Cl)cc6)CCCCC5)CC4)cc3Oc3ccc4[nH]ccc4c3)cc2[N+](=O)[O-])CC1` [Example 151, 4-(4-{[2-(4-chlorophenyl)cyclohept-1-en-1-yl]methyl}piperazin-1-yl)-2-(1H-indol-5-yloxy)-N-({4-[(1-methylpiperidin-4-yl)amino]-3-nitrophenyl}sulfonyl)benzamide], the Ki was more than 660 nM on GST-Bcl-XL and 0.162 nM on GST-Bcl-2. For the same molecule, the EC50 in the test with Canine platelets came out at 31400 nM; in the test with FL5.12/Bcl-2 cells it was 49 nM.

Turning to `CN1CCC(Nc2ccc(S(=O)(=O)NC(=O)c3ccc(N4CCN(CC5=C(c6ccc(Cl)cc6)CC(C)(C)CC5)CC4)cc3Oc3ccccc3)cc2[N+](=O)[O-])CC1` [Example 152, 4-(4-{[2-(4-chlorophenyl)-4,4-dimethylcyclohex-1-en-1-yl]methyl}piperazin-1-yl)-N-({4-[(1-methylpiperidin-4-yl)amino]-3-nitrophenyl}sulfonyl)-2-phenoxybenzamide], the figures for the Ki on GST-Bcl-XL and on GST-Bcl-2 were 0.412 nM and 0.026 nM, respectively. For the same molecule, the results for the EC50 in the test on Canine platelets and with FL5.12/Bcl-2 cells were 2660 nM and 9 nM, respectively.

As for `CN(C)CCCNc1ccc(S(=O)(=O)NC(=O)c2ccc(N3CCN(Cc4ccccc4-c4ccc(Cl)cc4)CC3)cc2Oc2ccccc2)cc1[N+](=O)[O-]` [Example 154, 4-{4-[(4′-chloro-1,1′-biphenyl-2-yl)methyl]piperazin-1-yl}-N-[(4-{[3-(dimethylamino)propyl]amino}-3-nitrophenyl)sulfonyl]-2-phenoxybenzamide], the Ki at GST-Bcl-XL turned out to be 5.38 nM; at GST-Bcl-2 it was 0.133 nM. Besides, the results for the EC50 in the test with Canine platelets and with FL5.12/Bcl-2 cells were 29000 nM and 85 nM, respectively.

As for `O=C(NS(=O)(=O)c1ccc(NCCCN2CCOCC2)c([N+](=O)[O-])c1)c1ccc(N2CCN(Cc3ccccc3-c3ccc(Cl)cc3)CC2)cc1Oc1ccccc1` [Example 155, 4-{4-[(4′-chloro-1,1′-biphenyl-2-yl)methyl]piperazin-1-yl}-N-({4-[(3-morpholin-4-ylpropyl)amino]-3-nitrophenyl}sulfonyl)-2-phenoxybenzamide], the values for the Ki on GST-Bcl-XL and at GST-Bcl-2 were 37.7 nM and 0.484 nM, respectively. The EC50 with Canine platelets is more than 50000 nM; in the test on FL5.12/Bcl-2 cells, 421 nM.

Regarding `CN(C)CCCNc1ccc(S(=O)(=O)NC(=O)c2ccc(N3CCN(Cc4ccccc4-c4ccc(Cl)cc4)CC3)cc2Oc2ccc3ccccc3c2)cc1[N+](=O)[O-]` [Example 166, 4-{4-[(4′-chloro-1,1′-biphenyl-2-yl)methyl]piperazin-1-yl}-N-[(4-{[3-(dimethylamino)propyl]amino}-3-nitrophenyl)sulfonyl]-2-(2-naphthyloxy)benzamide], the Ki at GST-Bcl-XL was 3.27 nM; on GST-Bcl-2 it was 0.459 nM. The EC50 with Canine platelets was more than 50000 nM; with FL5.12/Bcl-2 cells it was 153 nM.

Regarding `CN(C)CCCNc1ccc(S(=O)(=O)NC(=O)c2ccc(N3CCN(CC4=C(c5ccc(Cl)cc5)CC(C)(C)CC4)CC3)cc2Oc2ccc3[nH]ccc3c2)cc1S(=O)(=O)C(F)(F)F` [Example 170, 4-(4-{[2-(4-chlorophenyl)-4,4-dimethylcyclohex-1-en-1-yl]methyl}piperazin-1-yl)-N-({4-{[3-(dimethylamino)propyl]amino}-3-[(trifluoromethyl)sulfonyl]phenyl}sulfonyl)-2-(1H-indol-5-yloxy)benzamide], the Ki at GST-Bcl-XL is 3.8 nM; at GST-Bcl-2, 0.126 nM. The EC50 is 7350 nM in the test on Canine platelets and 15 nM in the test with FL5.12/Bcl-2 cells.

Usually Ki stands for the equilibrium dissociation constant of an inhibitor or competing ligand from its target. The low end stands for higher affinity, the high end for lower affinity. What is called EC50 is the concentration giving half of the maximal effect.
